Assay results taken from patent US10633448B2, “IGF-1R antibody-drug-conjugate and its use for the treatment of cancer” (PIERRE FABRE MEDICAMENT, priority 2014, dated 2020).

Tests used:
lysosome functions = test: Inhibition of Ab degradation with lysosome inhibitor; type: cell-based; conditions: cells with 10 μg/ml Ab, 2 h at 37° C.
Experimental: In order to confirm that antibodies reached the lysosome were they are degraded, cells were treated or not with bafilomycine A1, a potent inhibitor of lysosome functions. Cells were then incubated with 10 μg/ml of Ab to be tested at 4° C., washed and incubated for 2 h at 37° C. The internalized Ab was detected after cell permeabilisation using a secondary anti-mouse IgG-Alexa 488 Ab.

[1] = test system: MDA-MB-231 (breast adenocarcinoma) cells; test: ATPlite antiproliferative assay, MDA-MB-231; type: cell-based, human; conditions: 72 h drug treatment
Experimental: A549 (Non Small Cell Lung Cancer—ATCC CCL-185) and MDA-MB-231 (breast adenocarcinoma—ATCC HTB-26) cells were cultured in Minimum Essential Medium Eagle (MEM) with 5% fetal calf serum (FCS) and Dulbecco's modified Eagle Medium (DMEM) with 10% FCS respectively. MCF7 (breast ductal carcinoma—ATCC HTB-22) and SN-12C (kidney carcinoma—ATCC) cells were maintained in RPMI1640 medium (without phenol red for MCF7 cells) containing 10% FCS. All the media were supplemented with fungizone (1.25 μg/mL) and penicillin-streptomycin (100 U/100 μg/mL). Cells were cultured under standard conditions in an incubator at 37° C., 5% CO2 and 95% atmospheric humidity.
Selected drugs were investigated for their antiproliferative activity using an ATPlite proliferation assay (Perkin Elmer, Villebon sur Yvette, France) on a comprehensive panel of 4 cell lines. […] On day 4, cell viability was evaluated by dosing the ATP released by viable cells. The number of viable cells was analyzed in comparison with the number of solvent treated cells. The EC50 values were determined with curve fitting analysis (non linear regression model with a sigmoidal dose response, variable hill slope coefficient), performed with the algorithm provided by the GraphPad Software (GraphPad Software Inc., CA, USA).

Compound	degradation of intracellular Ab (lysosome functions)	EC50 [1]
CO/C1=C\C(C)=C\[C@@H](C)[C@@H](O)[C@@H](C)C/C(C)=C/C=C/[C@H](OC)[C@@H]([C@@H](C)[C@@H](O)[C@H](C)[C@@]2(O)C[C@@H](O)[C@H](C)[C@@H](C(C)C)O2)OC1=O [bafilomycine A1]	prevented the degradation of intracellular Ab	–
methyl (S)-2-((2R,3R)-3-((S)-1-((3R,4S,5S)-4-((S)-2-((S)-2-((3-aminobenzyl)(methyl)amino)-3-methylbutanamido)-N,3-dimethylbutanamido)-3-methoxy-5-methylheptanoyl)pyrrolidin-2-yl)-3-methoxy-2-methylpropanamido)-3-phenylpropanoate, trifluoroacetic acid [Compound 15]	–	0.17 nM
